Reference: US20220251141A1, “IMMUNOMODULATORS” (Bristol-Myers Squibb Company, priority 2019, published 2022)
Where a name gives a salt, the structure may show the parent alone. Numbered stars: 1 amine (or outer) side, 2 acyl side, 3 side chain; on linkers, the order of the positions; unused ones are H or OH. Bridge positions count the residues as written; N and C are the ends. Square brackets hold non-standard residues; d marks the D form. Peptide text beside a SMILES is read from it. * marks the point of attachment. Trp(1-CH2CO2Me) = COC(=O)Cn1cc(C[C@H](N)C(=O)O)c2ccccc21; Trp(1-CH2COOH) = N[C@@H](Cc1cn(CC(=O)O)c2ccccc12)C(=O)O; X2 = C/C(=N\C#N)NC[C@H](N[*:1])C(=O)[*:2]; Octyloxycarbonyl = CCCCCCCCOC(=O)*; Hexyloxycarbonyl = CCCCCCOC(=O)*; Hyp = O=C(O)[C@@H]1C[C@@H](O)CN1; Myristoyl = CCCCCCCCCCCCCC(=O)*; NMeNle = CCCC[C@H](NC)C(=O)O; Decanoyl = CCCCCCCCCC(=O)*; Ethoxycarbonyl = CCOC(=O)*; NMeA = CN[C@@H](C)C(=O)O; Dab = NCC[C@H](N)C(=O)O; X13 = CCCCCCCCCCOC(=O)*; Dap = NC[C@H](N)C(=O)O; Hexanoyl = CCCCCC(=O)*; Boc = CC(C)(C)OC(=O)*; Tfa = O=C(C(F)(F)F)*; X3 = O=C(OCCF)*

The compounds below were run against T1, PD-1/PD-L1 (Homo sapiens, UniProt Q9NZQ7) (assay: PD-1/PD-L1 Homogenous Time-Resolved Fluorescence (HTRF) binding assay). Conditions: PD-L1-His 10 nM final, PD-1-Ig 20 nM final; inhibitors pre-incubated with PD-L1-His for 15 m.
T1 construct: TVMV protease site linker (C); made in house; host or cells: HEK293T cells
Source text: The ability of the compounds of formula (I) to bind to PD-L1 was investigated using a PD-1/PD-L1 Homogenous Time-Resolved Fluorescence (HTRF) binding assay.
The interaction of PD-1 and PD-L1 can be assessed using soluble, purified preparations of the extracellular domains of the two proteins. The PD-1 and PD-L1 protein extracellular domains were expressed as fusion proteins with detection tags, for PD-1, the tag was the Fc portion of Immunoglobulin (PD-1-Ig) and for PD-L1 it was the 6 histidine motif (PD-L1-His). All binding studies were performed in an HTRF assay buffer consisting of dPBS supplemented with 0.1% […] bovine serum albumin and 0.05% (v/v) Tween-20. For the h/PD-L1-His binding assay, inhibitors were pre-incubated with PD-L1-His (10 nM final) for 15 m in 4 μl of assay buffer, followed by addition of PD-1-Ig (20 nM final) in 1 μl of assay buffer and further incubation for 15 m. HTRF detection was achieved using europium cryptate-labeled anti-Ig (1 nM final) and allophycocyanin (APC) labeled anti-His (20 nM final). Antibodies were diluted in HTRF detection buffer and 5 μl was dispensed on top of the binding reaction. The reaction mixture was allowed to equilibrate for 30 minutes and the resulting signal (665 nm/620 nm ratio) was obtained using an EnVision fluorometer. Additional binding assays were established between the human proteins PD-1-Ig/PD-L2-His (20 & 5 nM, respectively) and CD80-His/PD-L1-Ig (100 & 10 nM, respectively).
Recombinant Proteins: Human PD-1 (25-167) with a C-terminal human Fc domain of immunoglobulin G (Ig) epitope tag [hPD-1 (25-167)-3S-IG] and human PD-L1 (18-239) with a C-terminal His epitope tag [hPD-L1(18-239)-TVMV-His] were expressed in HEK293T cells and purified sequentially by Protein A affinity chromatography and size exclusion chromatography. Human PD-L2-His and CD80-His was obtained through commercial sources.
Table 3 lists the IC50 values for representative examples of this disclosure measured in the PD-1/PD-L1 Homogenous Time-Resolved Fluorescence (HTRF) binding assay.

Structure (SMILES) | IC50 [µM]
CCCCCCCCCCCCCC(=O)NCC[C@@H]1NC(=O)[C@H](Cc2c[nH]c3ccccc23)NC(=O)[C@@H]2C[C@@H](O)CN2C(=O)[C@H](CC(C)C)NC(=O)[C@H](CNC(=O)CCCCCCCCCCCCC)NC(=O)[C@@H]2CCCN2C(=O)[C@H](CC(N)=O)NC(=O)[C@H](C)N(C)C(=O)[C@H](Cc2ccc(O)cc2)NC(=O)CSC[C@@H](C(=O)NCC(N)=O)NC(=O)[C@H](CC(C)C)NC(=O)[C@H](CCCC)N(C)C(=O)[C@H](CCCC)N(C)C(=O)[C@H](Cc2cn(CC(=O)OC)c3ccccc23)NC1=O [Example 1005] ({CH2CO}-Y[NMeA]NP[Dap](Myristoyl)L[Hyp]W[Dab](Myristoyl)[Trp(1-CH2CO2Me)][NMeNle][NMeNle]LCG-NH2; thioether N-14) | > 10
CCCC[C@H]1C(=O)N(C)[C@@H](CCCC)C(=O)N[C@@H](CC(C)C)C(=O)N[C@H](C(=O)NCC(N)=O)CSCC(=O)N[C@@H](Cc2ccc(O)cc2)C(=O)N(C)[C@@H](C)C(=O)N[C@@H](CC(N)=O)C(=O)N2CCC[C@H]2C(=O)N[C@@H](CNC(=O)C(F)(F)F)C(=O)N[C@@H](CC(C)C)C(=O)N2C[C@H](O)C[C@H]2C(=O)N[C@@H](Cc2c[nH]c3ccccc23)C(=O)N[C@@H](CCNC(=O)C(F)(F)F)C(=O)N[C@@H](Cc2cn(CC(=O)O)c3ccccc23)C(=O)N1C [Example 1007] ({CH2CO}-Y[NMeA]NP[Dap](Tfa)L[Hyp]W[Dab](Tfa)[Trp(1-CH2COOH)][NMeNle][NMeNle]LCG-NH2; thioether N-14) | 0.0033
CCCC[C@H]1C(=O)N(C)[C@@H](CCCC)C(=O)N[C@@H](CC(C)C)C(=O)N[C@H](C(=O)NCC(N)=O)CSCC(=O)N[C@@H](Cc2ccc(O)cc2)C(=O)N(C)[C@@H](C)C(=O)N[C@@H](CC(N)=O)C(=O)N2CCC[C@H]2C(=O)N[C@@H](CNC(=O)OCC)C(=O)N[C@@H](CC(C)C)C(=O)N2C[C@H](O)C[C@H]2C(=O)N[C@@H](Cc2c[nH]c3ccccc23)C(=O)N[C@@H](CCNC(=O)OCC)C(=O)N[C@@H](Cc2cn(CC(=O)OC)c3ccccc23)C(=O)N1C [Example 1010] ({CH2CO}-Y[NMeA]NP[Dap](Ethoxycarbonyl)L[Hyp]W[Dab](Ethoxycarbonyl)[Trp(1-CH2CO2Me)][NMeNle][NMeNle]LCG-NH2; thioether N-14) | 0.0039
CCCC[C@H]1C(=O)N(C)[C@@H](CCCC)C(=O)N[C@@H](CC(C)C)C(=O)N[C@H](C(=O)NCC(N)=O)CSCC(=O)N[C@@H](Cc2ccc(O)cc2)C(=O)N(C)[C@@H](C)C(=O)N[C@@H](CC(N)=O)C(=O)N2CCC[C@H]2C(=O)N[C@@H](CNC(=O)OCCF)C(=O)N[C@@H](CC(C)C)C(=O)N2C[C@H](O)C[C@H]2C(=O)N[C@@H](Cc2c[nH]c3ccccc23)C(=O)N[C@@H](CCNC(=O)OCCF)C(=O)N[C@@H](Cc2cn(CC(=O)OC)c3ccccc23)C(=O)N1C [Example 1012] ({CH2CO}-Y[NMeA]NP[Dap](X3)L[Hyp]W[Dab](X3)[Trp(1-CH2CO2Me)][NMeNle][NMeNle]LCG-NH2; thioether N-14) | 0.019
CCCCCCCCOC(=O)NCC[C@@H]1NC(=O)[C@H](Cc2c[nH]c3ccccc23)NC(=O)[C@@H]2C[C@@H](O)CN2C(=O)[C@H](CC(C)C)NC(=O)[C@H](CNC(=O)OCCCCCCCC)NC(=O)[C@@H]2CCCN2C(=O)[C@H](CC(N)=O)NC(=O)[C@H](C)N(C)C(=O)[C@H](Cc2ccc(O)cc2)NC(=O)CSC[C@@H](C(=O)NCC(N)=O)NC(=O)[C@H](CC(C)C)NC(=O)[C@H](CCCC)N(C)C(=O)[C@H](CCCC)N(C)C(=O)[C@H](Cc2cn(CC(=O)OC)c3ccccc23)NC1=O [Example 1013] ({CH2CO}-Y[NMeA]NP[Dap](Octyloxycarbonyl)L[Hyp]W[Dab](Octyloxycarbonyl)[Trp(1-CH2CO2Me)][NMeNle][NMeNle]LCG-NH2; thioether N-14) | 1.1
CCCCCCCCCCOC(=O)NCC[C@@H]1NC(=O)[C@H](Cc2c[nH]c3ccccc23)NC(=O)[C@@H]2C[C@@H](O)CN2C(=O)[C@H](CC(C)C)NC(=O)[C@H](CNC(=O)OCCCCCCCCCC)NC(=O)[C@@H]2CCCN2C(=O)[C@H](CC(N)=O)NC(=O)[C@H](C)N(C)C(=O)[C@H](Cc2ccc(O)cc2)NC(=O)CSC[C@@H](C(=O)NCC(N)=O)NC(=O)[C@H](CC(C)C)NC(=O)[C@H](CCCC)N(C)C(=O)[C@H](CCCC)N(C)C(=O)[C@H](Cc2cn(CC(=O)OC)c3ccccc23)NC1=O [Example 1015] ({CH2CO}-Y[NMeA]NP[Dap](X13)L[Hyp]W[Dab](X13)[Trp(1-CH2CO2Me)][NMeNle][NMeNle]LCG-NH2; thioether N-14) | > 10

The remaining lines, values ahead:

IC50 [µM] | Structure (SMILES)
0.037 | CCCCCCCCCC(=O)NCC[C@@H]1NC(=O)[C@H](Cc2c[nH]c3ccccc23)NC(=O)[C@@H]2C[C@@H](O)CN2C(=O)[C@H](CC(C)C)NC(=O)[C@H](CNC(=O)CCCCCCCCC)NC(=O)[C@@H]2CCCN2C(=O)[C@H](CC(N)=O)NC(=O)[C@H](C)N(C)C(=O)[C@H](Cc2ccc(O)cc2)NC(=O)CSC[C@@H](C(=O)NCC(N)=O)NC(=O)[C@H](CC(C)C)NC(=O)[C@H](CCCC)N(C)C(=O)[C@H](CCCC)N(C)C(=O)[C@H](Cc2cn(CC(=O)O)c3ccccc23)NC1=O [Example 1003] ({CH2CO}-Y[NMeA]NP[Dap](Decanoyl)L[Hyp]W[Dab](Decanoyl)[Trp(1-CH2COOH)][NMeNle][NMeNle]LCG-NH2; thioether N-14)
> 10 | CCCCCCCCCC(=O)NCC[C@@H]1NC(=O)[C@H](Cc2c[nH]c3ccccc23)NC(=O)[C@@H]2C[C@@H](O)CN2C(=O)[C@H](CC(C)C)NC(=O)[C@H](CNC(=O)CCCCCCCCC)NC(=O)[C@@H]2CCCN2C(=O)[C@H](CC(N)=O)NC(=O)[C@H](C)N(C)C(=O)[C@H](Cc2ccc(O)cc2)NC(=O)CSC[C@@H](C(=O)NCC(N)=O)NC(=O)[C@H](CC(C)C)NC(=O)[C@H](CCCC)N(C)C(=O)[C@H](CCCC)N(C)C(=O)[C@H](Cc2cn(CC(=O)OC)c3ccccc23)NC1=O [Example 1004] ({CH2CO}-Y[NMeA]NP[Dap](Decanoyl)L[Hyp]W[Dab](Decanoyl)[Trp(1-CH2CO2Me)][NMeNle][NMeNle]LCG-NH2; thioether N-14)
0.022 | CCCCCC(=O)NCC[C@@H]1NC(=O)[C@H](Cc2c[nH]c3ccccc23)NC(=O)[C@@H]2C[C@@H](O)CN2C(=O)[C@H](CC(C)C)NC(=O)[C@H](CNC(=O)CCCCC)NC(=O)[C@@H]2CCCN2C(=O)[C@H](CC(N)=O)NC(=O)[C@H](C)N(C)C(=O)[C@H](Cc2ccc(O)cc2)NC(=O)CSC[C@@H](C(=O)NCC(N)=O)NC(=O)[C@H](CC(C)C)NC(=O)[C@H](CCCC)N(C)C(=O)[C@H](CCCC)N(C)C(=O)[C@H](Cc2cn(CC(=O)OC)c3ccccc23)NC1=O [Example 1006] ({CH2CO}-Y[NMeA]NP[Dap](Hexanoyl)L[Hyp]W[Dab](Hexanoyl)[Trp(1-CH2CO2Me)][NMeNle][NMeNle]LCG-NH2; thioether N-14)
0.0055 | CCCC[C@H]1C(=O)N(C)[C@@H](CCCC)C(=O)N[C@@H](CC(C)C)C(=O)N[C@H](C(=O)NCC(N)=O)CSCC(=O)N[C@@H](Cc2ccc(O)cc2)C(=O)N(C)[C@@H](C)C(=O)N[C@@H](CC(N)=O)C(=O)N2CCC[C@H]2C(=O)N[C@@H](CN/C(C)=N/C#N)C(=O)N[C@@H](CC(C)C)C(=O)N2C[C@H](O)C[C@H]2C(=O)N[C@@H](Cc2c[nH]c3ccccc23)C(=O)N[C@@H](CCN)C(=O)N[C@@H](Cc2cn(CC(=O)O)c3ccccc23)C(=O)N1C [Example 1009] ({CH2CO}-Y[NMeA]NP[X2]L[Hyp]W[Dab][Trp(1-CH2COOH)][NMeNle][NMeNle]LCG-NH2; thioether N-14)
0.0061 | CCCC[C@H]1C(=O)N(C)[C@@H](CCCC)C(=O)N[C@@H](CC(C)C)C(=O)N[C@H](C(=O)NCC(N)=O)CSCC(=O)N[C@@H](Cc2ccc(O)cc2)C(=O)N(C)[C@@H](C)C(=O)N[C@@H](CC(N)=O)C(=O)N2CCC[C@H]2C(=O)N[C@@H](CNC(=O)OC(C)(C)C)C(=O)N[C@@H](CC(C)C)C(=O)N2C[C@H](O)C[C@H]2C(=O)N[C@@H](Cc2c[nH]c3ccccc23)C(=O)N[C@@H](CCNC(=O)OC(C)(C)C)C(=O)N[C@@H](Cc2cn(CC(=O)O)c3ccccc23)C(=O)N1C [Example 1014] ({CH2CO}-Y[NMeA]NP[Dap](Boc)L[Hyp]W[Dab](Boc)[Trp(1-CH2COOH)][NMeNle][NMeNle]LCG-NH2; thioether N-14)
0.012 | CCCCCCOC(=O)NCC[C@@H]1NC(=O)[C@H](Cc2c[nH]c3ccccc23)NC(=O)[C@@H]2C[C@@H](O)CN2C(=O)[C@H](CC(C)C)NC(=O)[C@H](CNC(=O)OCCCCCC)NC(=O)[C@@H]2CCCN2C(=O)[C@H](CC(N)=O)NC(=O)[C@H](C)N(C)C(=O)[C@H](Cc2ccc(O)cc2)NC(=O)CSC[C@@H](C(=O)NCC(N)=O)NC(=O)[C@H](CC(C)C)NC(=O)[C@H](CCCC)N(C)C(=O)[C@H](CCCC)N(C)C(=O)[C@H](Cc2cn(CC(=O)OC)c3ccccc23)NC1=O [Example 1016] ({CH2CO}-Y[NMeA]NP[Dap](Hexyloxycarbonyl)L[Hyp]W[Dab](Hexyloxycarbonyl)[Trp(1-CH2CO2Me)][NMeNle][NMeNle]LCG-NH2; thioether N-14)
